Laboratory results: patent US6743795B1, “3-nitropyridine derivaives and the pharmaceutical compositions containing said derivatives” (Dong Wha Pharm. Ind. Co. Ltd., priority 1999, dated 2004)

Legend:
HBV polymerase = target: T1, HBV polymerase (Hepatitis B virus genotype A2 subtype adw2, UniProt P03159); assay: In vitro reverse transcription activity of HBV polymerase (ELISA-type, DIG/biotin nucleotides); assay type: biochemical; settings: for inhibition at 0.01 µg/mL / inhibition at 0.1 µg/mL / inhibition at 1 µg/mL: read-out: Inhibition activity on HBV-RT (%)
T1 construct: made in house; host or cells: E. coli
T1 sequence (P03159 whole entry): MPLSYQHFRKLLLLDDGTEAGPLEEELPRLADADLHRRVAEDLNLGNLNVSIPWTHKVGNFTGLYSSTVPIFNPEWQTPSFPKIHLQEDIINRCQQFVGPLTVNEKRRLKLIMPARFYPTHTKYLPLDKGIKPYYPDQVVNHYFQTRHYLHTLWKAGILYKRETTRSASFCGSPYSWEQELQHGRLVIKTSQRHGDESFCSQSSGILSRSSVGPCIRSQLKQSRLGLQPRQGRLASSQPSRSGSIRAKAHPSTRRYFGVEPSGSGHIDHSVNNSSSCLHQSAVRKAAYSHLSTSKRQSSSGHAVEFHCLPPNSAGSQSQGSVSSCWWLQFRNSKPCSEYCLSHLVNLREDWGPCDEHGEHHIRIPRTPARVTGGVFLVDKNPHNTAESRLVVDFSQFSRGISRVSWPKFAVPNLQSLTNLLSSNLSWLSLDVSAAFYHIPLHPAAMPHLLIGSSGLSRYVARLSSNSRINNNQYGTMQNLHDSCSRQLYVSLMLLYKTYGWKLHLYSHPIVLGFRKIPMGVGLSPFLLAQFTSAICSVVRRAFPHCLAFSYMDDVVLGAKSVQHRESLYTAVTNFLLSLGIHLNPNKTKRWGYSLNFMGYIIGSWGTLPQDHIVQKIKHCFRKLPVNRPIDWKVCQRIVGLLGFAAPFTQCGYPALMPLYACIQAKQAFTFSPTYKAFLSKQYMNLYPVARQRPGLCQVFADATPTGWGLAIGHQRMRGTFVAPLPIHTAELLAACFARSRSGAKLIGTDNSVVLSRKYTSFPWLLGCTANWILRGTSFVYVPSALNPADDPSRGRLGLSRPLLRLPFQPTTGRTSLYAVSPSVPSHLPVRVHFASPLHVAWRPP
Experimental: <Experiment 1> Inhibitory Effect on the In Vitro Activities of HBV Polymerase in Reverse Transcription
The following in vitro experiment was performed to determine the effect of the compounds of formula 1 on the activity of HBV polymerase during reverse transcription.
The present inventors submitted application for a patent concerning HBV polymerase genetically expressed in and separated from E.coli, the process of its preparation, and the method to measure the enzyme activities (KR 94-3918, KR 96-33998). In the present experiments HBV polymerase was used which had been expressed in E. coli as stated above.
The method used in the present invention to measure in vitro reverse transcribing activities of HBV polymerase is as follows. Basic principles are the same as for ELISA. Nucleotides with biotin or digoxigenin group attached are included as substrates and anti-DIG antibodies attached to peroxidase enzyme recognize the polymerized substrates.
To the wells coated with streptavidin, 20 μl of HBV polymerase, 20 μl of reaction mixture (10 μM each of DIG-UTP and Biotin-UTP, 46 mM Tris-HCl, 266 mM KCl, 27.5 mM MgCl2, 9.2 mM DTT substrate/primer nybrid), and 20 μl of test compound (added to 1, 0.1, and 0.01 μg/ml) were added and allowed to react at 22° C. for 15 hrs. During this reaction, HBV polymerase catalyzes DNA synthesis and digoxigenin and biotin attached to nucleotides form bonds with streptavidin coated on the bottom of wells. When the reaction was done, each well was washed with 250 μl of cleaning buffer (pH 7.0) for 30 seconds, which was repeated five times to remove remaining impurities. 200 μl of anti-DIG-POD antibody was added to each well and allowed to react for 1 hr at 37° C., and the wells were washed with cleaning buffer to remove impurities. 200 μl each of ABTS™, a substrate of peroxidase, was then added and allowed to react at room temperature for 30 min. Absorbance was measured at 405 nm using ELISA reader.
The percentage of reduction in HBV polymerase activities for reverse transcription was calculated using the group without test compound as a control and the results are shown in Table 3.

HBV = assay: Proliferation of HBV in HBV producing cell line HepG 2.2.15 (competitive PCR of culture supernatant); assay type: cell-based, Hepatitis B virus; settings: HepG 2.2.15, one week; for inhibition at 0.01 µg/mL / inhibition at 0.1 µg/mL / inhibition at 1 µg/mL: Hepatitis B virus, HepG2.2.15, 168 h, read-out: Inhibitory effect on the HBV proliferation: Inhibition activity on HBV-RT (%)
Experimental: <Experiment 2> Inhibitory Effect on the Proliferation of HBV in HBV Producing Cell Line
The following experiment was performed to determine inhibitory effects of compounds of formula 1 on the proliferation of HBV producing cell line.
To test for antiviral effect, replication and proliferation of HBV were measured in HepG 2.2.15, a human liver cancer cell line.
The cell concentration was adjusted to 1×10^5 cells/ml and 1 ml was added to each well of a 24-well cell culture plate, which was then kept in a culture box for 3-4 days at 37° C. under 5% CO2 until cells grew sufficiently, changing culture medium everyday. When the cells matured sufficiently, the test compounds were added to the final concentrations of 0.01, 0.1, and 1 μg/ml. One week after the addition of test compounds, the culture solution was centrifuged at 5,000 rpm for 10 min. 25 μl of supernatant was transferred to a new tube and 5 μl of lysis solution [0.54N NaOH, 0.06% NP40] was added to each tube. After keeping the tube at 37° C. for 1 hr, 30 μl of neutralizing solution [0.09N HCl 0.1MTris-HCl, pH7.4] was added as a reaction solution for competitive polymerase chain reaction (PCR).
PCR was performed using genetic sequence of HBV core protein as a matrix. PCR reaction was carried out by adding 1 unit of Taq polymerase enzyme to 25 pmol of each primer, 250 μM dNTP, 5 μl of PCR reaction solution [0.54N NaOH, 0. 06% NP40, 0.09N HCl, 0.1M Tris-HCl, pH 7.4].
DNA polymerized by PCR was electrophoresed on Agarose gel and quantitatively analyzed using an image analyzer (Gel Doc 1000, Bio-Rad) in order to evaluate the effect of compounds of the present invention on the reduction of HBV proliferation.
3TC (lamivudine) was used as a positive control at the same concentrations as those of the test compounds. The percentage of reduction in HBV proliferation was calculated using the group without test compound as a control and the results are represented in Table 4.

[1] = target: T2, HIV reverse transcriptase (Human immunodeficiency virus type 1 group M subtype B, UniProt P03366); assay: In vitro HIV reverse transcriptase activity (non-radioactive RT assay kit); assay type: biochemical
T2 construct: purchased Boehringer Mannheim
Experimental: <Experiment 3> Inhibitory Effect on the In Vitro HIV Enzyme Activities in Reverse Transcription
The following in vitro experiments were done to determine the effect of compounds of formula 1 on the reduction of HIV enzyme activities in reverse transcription.
Non-radioactive reverse transcriptase assay kit (Boehringer Mannheim) was used in the measurement of in vitro transcriptase activities. 20 μl (40 ng) of HIV transcriptase and 20 μl of reaction mixture containing matrix-primer hybrid poly(A)oligo(dT)15, DIG(digoxigenin)-dUTP, biotin-dUTP, and TTP were added to wells coated with streptavidin. Test compounds were also added at the final concentrations of 0.1 and 1 μg/ml and allowed to react at 37° C. for 1 hr. At this time, DNA is formed from RNA by the action of HIV reverse transcriptase, forming bonds with streptavidin coated on the bottom of wells because of digoxigenin and biotin moieties attached to nucleotides.
When the reaction was completed, each well was washed with 250 μl of cleaning buffer (pH7.0) for 30sec. five times to remove remaining impurities. 200 μl of anti-DIG-POD […] was added to each well, allowed to react at 37° C. for 1 hr and washed as above to remove impurities. 200 μl of ABTS™, a substrate for peroxidase, was added to each well and allowed to react at room temperature for 30 min. Absorbance at 405 nm was then read for each solution using ELISA reader and used for quantitative determination of inhibitory effect on the HIV transcriptase activities. The percentage of reduction in the activities of HIV reverse transcriptase was calculated using the group without test compound as control and the results are represented in Table 5.

| melting point | inhibition at 0.01 µg/mL (HBV polymerase; 0.01 μg/ml test compound) | inhibition at 0.1 µg/mL (HBV polymerase; 0.1 μg/ml test compound) | inhibition at 1 µg/mL (HBV polymerase; 1 μg/ml test compound) | SMILES | inhibition at 0.01 µg/mL (HBV; 0.01 μg/ml) | inhibition at 0.1 µg/mL (HBV; 0.1 μg/ml) | inhibition at 1 µg/mL (HBV; 1 μg/ml) | Inhibitory effect on the activities of HIV reverse transcriptase: Inhibition activity on HIV-RT (%) ([1]; 0.1 μg/ml test compound) | Inhibitory effect on the activities of HIV reverse transcriptase: Inhibition activity on HIV-RT (%) ([1]; 1 μg/ml test compound) | Inhibitory effect on the HBV proliferation: Inhibition activity on HBV-RT (%) (HBV; 0.01 μg/ml) | Inhibitory effect on the HBV proliferation: Inhibition activity on HBV-RT (%) (HBV; 0.1 μg/ml) | Inhibitory effect on the HBV proliferation: Inhibition activity on HBV-RT (%) (HBV; 1 μg/ml) | Inhibition activity on HBV-RT (%) (HBV polymerase; 0.01 μg/ml test compound) | Inhibition activity on HBV-RT (%) (HBV polymerase; 0.1 μg/ml test compound) | Inhibition activity on HBV-RT (%) (HBV polymerase; 1 μg/ml test compound) |
| --- | --- | --- | --- | --- | --- | --- | --- | --- | --- | --- | --- | --- | --- | --- | --- |
| 260 °C (dec.) | 25% | 43% | 70% | CN1CCN(Nc2ccc([N+](=O)[O-])c(Nc3ccc4cn[nH]c4c3)n2)CC1 [Example 18, 2-(1H-6-indazolylamino)-6-(4-methyl-1-piperazinyl)amino-3-nitropyridine] | – | – | – | – | – | – | – | – | – | – | – |
| 253 °C (dec.) | – | – | – | CN1CCN(c2ccc([N+](=O)[O-])c(Nc3ccc4cn[nH]c4c3)n2)CC1 (hydrate or solvate) [Example 26, 2-(1H-6-indazolylamino)-6-(4-methyl-1-piperazinyl)-3-nitropyridine] | – | – | – | – | – | – | – | – | – | – | – |
| – | – | – | – | CC(C)Nc1ccc([N+](=O)[O-])c(Nc2ccc3[nH]ncc3c2)n1 [Example 5, 2-(1H-5-indazolylamino)-6-isopropyl amino-3-nitropyridine] | – | – | – | 20% | 55% | 41% | 81% | 94% | 53% | 87% | 96% |
| 268 °C (dec.) | 20% | 43% | 62% | O=[N+]([O-])c1ccc(N2CCNCC2)nc1Nc1ccc2cn[nH]c2c1 [Example 24, 2-(1H-6-indazolylamino)-3-nitro-6-(1-piperazinyl)pyridine] | – | – | – | – | – | – | – | – | – | – | – |
| > 270 °C | 32% | 49% | 71% | O=[N+]([O-])c1ccc(NN2CCOCC2)nc1Nc1ccc2[nH]ncc2c1 [Example 30, 2-(1H-5-indazolylamino)-6-(4-morpholinyl)amino-3-nitropyridine] | – | – | – | – | – | – | – | – | – | – | – |
| – | – | – | – | CC(C)CNc1ccc([N+](=O)[O-])c(Nc2ccc3[nH]ncc3c2)n1 [Example 7, 2-(1H-5-indazolylamino)-6-isobuthyl amino-3-nitropyridine] | – | – | – | 45% | 72% | 30% | 75% | 93% | 47% | 80% | 95% |
| – | – | – | – | CNc1ccc([N+](=O)[O-])c(Nc2ccc3cn[nH]c3c2)n1 [Example 4, 2-(1H-6-indazolylamino)-6-methyl amino-3-nitropyridine] | – | – | – | 51% | 70% | – | 40% | 58% | 26% | 51% | 60% |

| SMILES | melting point | inhibition at 0.01 µg/mL (HBV polymerase; 0.01 μg/ml test compound) | inhibition at 0.1 µg/mL (HBV polymerase; 0.1 μg/ml test compound) | inhibition at 1 µg/mL (HBV polymerase; 1 μg/ml test compound) | inhibition at 0.01 µg/mL (HBV; 0.01 μg/ml) | inhibition at 0.1 µg/mL (HBV; 0.1 μg/ml) | inhibition at 1 µg/mL (HBV; 1 μg/ml) | Inhibitory effect on the activities of HIV reverse transcriptase: Inhibition activity on HIV-RT (%) ([1]; 0.1 μg/ml test compound) | Inhibitory effect on the activities of HIV reverse transcriptase: Inhibition activity on HIV-RT (%) ([1]; 1 μg/ml test compound) | Inhibitory effect on the HBV proliferation: Inhibition activity on HBV-RT (%) (HBV; 0.01 μg/ml) | Inhibitory effect on the HBV proliferation: Inhibition activity on HBV-RT (%) (HBV; 0.1 μg/ml) | Inhibitory effect on the HBV proliferation: Inhibition activity on HBV-RT (%) (HBV; 1 μg/ml) | Inhibition activity on HBV-RT (%) (HBV polymerase; 0.01 μg/ml test compound) | Inhibition activity on HBV-RT (%) (HBV polymerase; 0.1 μg/ml test compound) | Inhibition activity on HBV-RT (%) (HBV polymerase; 1 μg/ml test compound) |
| --- | --- | --- | --- | --- | --- | --- | --- | --- | --- | --- | --- | --- | --- | --- | --- |
| O=[N+]([O-])c1ccc(NCc2ccncc2)nc1Nc1ccc2[nH]ncc2c1 [Example 21, 2-(1H-5-indazolylamino)-3-nitro-6-(4-pyridyl)methylaminopyridine] | – | 45% | 65% | 94% | 33% | 50% | 90% | 39% | 72% | – | – | – | – | – | – |
| COc1ccc([N+](=O)[O-])c(Nc2ccc3[nH]ncc3c2)n1 [Example 1, 2-(1H-5-indazolylamino)-6-methoxy-3-nitropyridine] | – | 30% | 54% | 85% | 20% | 45% | 82% | 35% | 75% | – | – | – | – | – | – |
